# Marks after values point to notes of the source that are not given here.
# What was measured:
# WT HIV-1 (NL4-3) = assay: Anti-HIV-1 activity against wild-type NL4-3 in TZM-bl cell lines
# in vitro = conditions: human
# [1] = tested on: NNRTI-resistant strain K103N+Y181C (RES056); conditions: MT-4 cells
# WT HIV-1 (IIIB) = conditions: MT-4 cells
# HIV-1 K103N = type: cell-based; conditions: MT-4 cells; CC50/EC50
# HIV-1 Y188L = type: cell-based; conditions: MT-4 cells; CC50/EC50
# HIV-1 E138K = type: cell-based; conditions: MT-4 cells; CC50/EC50
# HIV-1 L100I = type: cell-based; conditions: MT-4 cells; CC50/EC50
# HIV-1 F227L+V106A = type: cell-based; conditions: MT-4 cells; CC50/EC50
# HIV-1 Y181C = type: cell-based; conditions: MT-4 cells; CC50/EC50
SMILES,SI RES056 (CC50/EC50) [1],SI IIIB (CC50/EC50) (WT HIV-1 (IIIB)),also measured
"Cc1cc(C#N)cc(C)c1Oc1nc(NC2CCCN(Cc3ccc(S(N)(=O)=O)cc3)CC2)nc2ccsc12 (centres unmarked) [8a1, 4-((4-((4-(4-Cyano-2,6-dimethylphenoxy)thieno[3,2-d]-pyrimidin-2-yl)amino)azepan-1-yl)methyl)benzenesulfonamide]",,,SI (CC50/EC50) NL4-3 (WT HIV-1 (NL4-3)): >100
"Cc1cc(C#N)cc(C)c1Oc1nc(NC2CCCN(Cc3ccc(C(N)=O)cc3)CC2)nc2ccsc12 (centres unmarked) [8a2, 4-((4-((4-(4-Cyano-2,6-dimethylphenoxy)thieno[3,2-d]-pyrimidin-2-yl)amino)azepan-1-yl)methyl)benzamide]",,,SI (CC50/EC50) NL4-3 (WT HIV-1 (NL4-3)): X1^d
"Cc1cc(C#N)cc(C)c1Oc1nc(NC2CC3CCC(C2)N3Cc2ccc(S(N)(=O)=O)cc2)nc2ccsc12 (centres unmarked) [8b1, 4-((3-((4-(4-Cyano-2,6-dimethylphenoxy)thieno[3,2-d]-pyrimidin-2-yl)amino)-8-azabicyclo[3.2.1]octan-8-yl)methyl)benzenesulfonamide]",,,SI (CC50/EC50) NL4-3 (WT HIV-1 (NL4-3)): X1^d
"Cc1cc(C#N)cc(C)c1Oc1nc(NC2CC3CCC(C2)N3Cc2ccc(C(N)=O)cc2)nc2ccsc12 (centres unmarked) [8b2, 4-((3-((4-(4-Cyano-2,6-dimethylphenoxy)thieno[3,2-d]-pyrimidin-2-yl)amino)-8-azabicyclo[3.2.1]octan-8-yl)methyl)benzamide]",,,SI (CC50/EC50) NL4-3 (WT HIV-1 (NL4-3)): X1^d
"Cc1cc(C#N)cc(C)c1Oc1nc(NC2CC3CCC(C2)N3Cc2cccc(C(N)=O)c2)nc2ccsc12 (centres unmarked) [8b3, 3-((3-((4-(4-Cyano-2,6-dimethylphenoxy)thieno[3,2-d]-pyrimidin-2-yl)amino)-8-azabicyclo[3.2.1]octan-8-yl)methyl)benzamide]",,,SI (CC50/EC50) NL4-3 (WT HIV-1 (NL4-3)): X1^d
"Cc1cc(C#N)cc(C)c1Oc1nc(NC2CC3CCC(C2)N3Cc2ccc(S(C)(=O)=O)cc2)nc2ccsc12 (centres unmarked) [8b4, 3,5-Dimethyl-4-((2-((8-(4-(methylsulfonyl)benzyl)-8-azabicyclo[3.2.1]octan-3-yl)amino)thieno[3,2-d]pyrimidin-4-yl)oxy)benzonitrile]",,,SI (CC50/EC50) NL4-3 (WT HIV-1 (NL4-3)): X1^d
"Cc1cc(C#N)cc(C)c1Oc1nc(NC2CC3CCC(C2)N3Cc2ccncc2)nc2ccsc12 (centres unmarked) [8b5, 3,5-Dimethyl-4-((2-((8-(pyridin-4-ylmethyl)-8-azabicyclo-[3.2.1]octan-3-yl)amino)thieno[3,2-d]pyrimidin-4-yl)oxy)benzonitrile]",,,SI (CC50/EC50) NL4-3 (WT HIV-1 (NL4-3)): X1^d
"Cc1cc(C#N)cc(C)c1Oc1nc(N[C@@H]2CCN(Cc3ccc(C(N)=O)cc3)C2)nc2ccsc12 [8c2, (R)-4-((3-((4-(4-Cyano-2,6-dimethylphenoxy)thieno[3,2-d]-pyrimidin-2-yl)amino)pyrrolidin-1-yl)methyl)benzamide]",,,CC50 (in vitro): > 250 nM
"Cc1cc(C#N)cc(C)c1Oc1nc(N[C@@H]2CCN(Cc3cccc(C(N)=O)c3)C2)nc2ccsc12 [8c3, (R)-3-((3-((4-(4-Cyano-2,6-dimethylphenoxy)thieno[3,2-d]-pyrimidin-2-yl)amino)pyrrolidin-1-yl)methyl)benzamide]",,,CC50 (in vitro): > 250 nM
"Cc1cc(C#N)cc(C)c1Oc1nc(N[C@@H]2CCN(Cc3ccc(S(C)(=O)=O)cc3)C2)nc2ccsc12 [8c4, (R)-3,5-Dimethyl-4-((2-((1-(4-(methylsulfonyl)benzyl)pyrrolidin-3-yl)amino)thieno[3,2-d]pyrimidin-4-yl)oxy)benzonitrile]",,,CC50 (in vitro): > 234 nM
"Cc1cc(C#N)cc(C)c1Oc1nc(N[C@H]2CCN(Cc3ccc(S(N)(=O)=O)cc3)C2)nc2ccsc12 [8d1, (S)-4-((3-((4-(4-Cyano-2,6-dimethylphenoxy)thieno[3,2-d]-pyrimidin-2-yl)amino)pyrrolidin-1-yl)methyl)benzenesulfonamide]",,,CC50 (in vitro): > 233 nM
"Cc1cc(C#N)cc(C)c1Oc1nc(N[C@H]2CCN(Cc3cccc(C(N)=O)c3)C2)nc2ccsc12 [8d3, (S)-3-((3-((4-(4-Cyano-2,6-dimethylphenoxy)thieno[3,2-d]-pyrimidin-2-yl)amino)pyrrolidin-1-yl)methyl)benzamide]",,,SI (CC50/EC50) NL4-3 (WT HIV-1 (NL4-3)): X1^d
"Cc1cc(C#N)cc(C)c1Oc1nc(N[C@H]2CCN(Cc3ccncc3)C2)nc2ccsc12 [8d5, (S)-3,5-Dimethyl-4-((2-((1-(pyridin-4-ylmethyl)pyrrolidin-3-yl)amino)thieno[3,2-d]pyrimidin-4-yl)oxy)benzonitrile]",,,CC50 (in vitro): > 273 nM
"Cc1cc(C#N)cc(C)c1Oc1nc(NC2CCN(Cc3ccncc3)CC2)nc2c1SCC2 [13a4, 3,5-Dimethyl-4-((2-((1-(pyridin-4-ylmethyl)piperidin-4-yl)amino)-6,7-dihydrothieno[3,2-d]pyrimidin-4-yl)oxy)benzonitrile]",≥2305,≥40104,
"Cc1cc(C#N)cc(C)c1Oc1nc(NC2CCN(Cc3cccc(C(N)=O)c3)CC2)nc2c1SCC2 [13a6, 3-((4-((4-(4-Cyano-2,6-dimethylphenoxy)-6,7-dihydrothieno[3,2-d]pyrimidin-2-yl)amino)piperidin-1-yl)methyl)benzamide]",≥355,≥8048,
"Cc1cc(C#N)cc(C)c1Oc1nc(NC2CCN(Cc3ccc(N)cc3)CC2)nc2c1CSC2 [13b4, 4-((2-((1-(4-Aminobenzyl)piperidin-4-yl)amino)-5,7-dihydrothieno[3,4-d]pyrimidin-4-yl)oxy)-3,5-dimethylbenzonitrile]",>364,>30377,
"Cc1cc(C#N)cc(C)c1Oc1nc(NC2CCN(Cc3ccc(NS(C)(=O)=O)cc3)CC2)nc2c1CSC2 [13b5, N-(4-((4-((4-(4-Cyano-2,6-dimethylphenoxy)-5,7-dihydrothieno[3,4-d]pyrimidin-2-yl)amino)piperidin-1-yl)methyl)phenyl)methanesulfonamide]",>42,>19670,
"Cc1cc(C#N)cc(C)c1Oc1nc(NC2CCN(Cc3ccc([N+](=O)[O-])cc3)CC2)nc2c1COC2 [13c5, 3,5-Dimethyl-4-((2-((1-(4-nitrobenzyl)piperidin-4-yl)amino)-5,7-dihydrofuro[3,4-d]pyrimidin-4-yl)oxy)benzonitrile]",≥22,≥1497,
"Cc1cc(C#N)cc(C)c1Oc1nc(NC2CCN(Cc3ccc(S(N)(=O)=O)cc3)CC2)nc2c1CCC2 [13d1, 4-((4-((4-(4-Cyano-2,6-dimethylphenoxy)-6,7-dihydro-5H-cyclopenta[d]pyrimidin-2-yl)amino)piperidin-1-yl)methyl)benzenesulfonamide]",>9091,>208333,SI K103N (HIV-1 K103N): > 21186; SI Y188L (HIV-1 Y188L): > 16667; SI E138K (HIV-1 E138K): > 5543; SI L100I (HIV-1 L100I): > 39683; SI F227L+V106A (HIV-1 F227L+V106A): > 6579; SI Y181C (HIV-1 Y181C): > 16447
"Cc1cc(C#N)cc(C)c1Oc1nc(NC2CCN(Cc3ccc(C(N)=O)cc3)CC2)nc2c1CCC2 [13d2, 4-((4-((4-(4-Cyano-2,6-dimethylphenoxy)-6,7-dihydro-5H-cyclopenta[d]pyrimidin-2-yl)amino)piperidin-1-yl)methyl)benzamide]",>1448,>40984,
"Cc1cc(C#N)cc(C)c1Oc1nc(NC2CCN(Cc3ccncc3)CC2)nc2c1CCC2 [13d4, 3,5-Dimethyl-4-((2-((1-(pyridin-4-ylmethyl)piperidin-4-yl)amino)-6,7-dihydro-5H-cyclopenta[d]pyrimidin-4-yl)oxy)benzonitrile]",>5020,>147059,
"Cc1cc(C#N)cc(C)c1Oc1nc(NC2CCN(Cc3ccc(S(N)(=O)=O)cc3)CC2)nc2c1CCCC2 [13e1, 4-((4-((4-(4-Cyano-2,6-dimethylphenoxy)-5,6,7,8-tetrahydroquinazolin-2-yl)amino)piperidin-1-yl)methyl)benzenesulfonamide]",>342,>37879,
"Cc1cc(C#N)cc(C)c1Oc1nc(NC2CCN(Cc3ccc(C(N)=O)cc3)CC2)nc2c1CCCC2 [13e2, 4-((4-((4-(4-Cyano-2,6-dimethylphenoxy)-5,6,7,8-tetrahydroquinazolin-2-yl)amino)piperidin-1-yl)methyl)benzamide]",>799,>38709,
"Cc1cc(C#N)cc(C)c1Oc1nc(NC2CCN(Cc3ccc(S(C)(=O)=O)cc3)CC2)nc2c1CCCC2 [13e3, 3,5-Dimethyl-4-((2-((1-(4-(methylsulfonyl)benzyl)piperidin-4-yl)amino)-5,6,7,8-tetrahydroquinazolin-4-yl)oxy)benzonitrile]",>4032,>33333,
"Cc1cc(C#N)cc(C)c1Oc1nc(NC2CCN(Cc3ccc(S(N)(=O)=O)cc3)CC2)nc2c1SCCC2 [13f1, 4-((4-((4-(4-Cyano-2,6-dimethylphenoxy)-7,8-dihydro-6H-thiopyrano[3,2-d]pyrimidin-2-yl)amino)piperidin-1-yl)methyl)benzenesulfonamide]",≥3650,≥54889,SI K103N (HIV-1 K103N): ≥ 28500; SI Y188L (HIV-1 Y188L): ≥ 18525; SI E138K (HIV-1 E138K): ≥ 17435; SI L100I (HIV-1 L100I): ≥ 11488; SI F227L+V106A (HIV-1 F227L+V106A): ≥ 6645; SI Y181C (HIV-1 Y181C): ≥ 14250
"Cc1cc(C#N)cc(C)c1Oc1nc(NC2CCN(Cc3ccc(C(N)=O)cc3)CC2)nc2c1SCCC2 [13f2, 4-((4-((4-(4-Cyano-2,6-dimethylphenoxy)-7,8-dihydro-6H-thiopyrano[3,2-d]pyrimidin-2-yl)amino)piperidin-1-yl)methyl)benzamide]",>476,>14767,
"Cc1cc(C#N)cc(C)c1Oc1nc(NC2CCN(Cc3ccc(S(C)(=O)=O)cc3)CC2)nc2c1SCCC2 [13f3, 3,5-Dimethyl-4-((2-((1-(4-(methylsulfonyl)benzyl)piperidin-4-yl)amino)-7,8-dihydro-6H-thiopyrano[3,2-d]pyrimidin-4-yl)oxy)benzonitrile]",≥34.6,≥872,

# Source: publication PMC7441537 (Journal of medicinal chemistry, 2019)
